Values belong to the molecule of their own block, whether it stands above or below them.
Key:
[1] = target: T1, Vascular endothelial growth factor receptor 2 (Homo sapiens, UniProt P35968)
[2] = target: Hepatocyte growth factor receptor (Homo sapiens, UniProt P08581); test: Inhibition of cMet by HTRF assay
[3] = target: T1, Vascular endothelial growth factor receptor 2; test: Inhibition of VEGF-induced human KDR phosphorylation transfected in NIH3T3 cells by ELISA; assay type: functional, cell-based
Angiopoietin-1 receptor = Angiopoietin-1 receptor (Homo sapiens, UniProt Q02763); test: Inhibition of Tie2 by HTRF assay
Angiopoietin-1 receptor, sequence (Q02763 whole entry): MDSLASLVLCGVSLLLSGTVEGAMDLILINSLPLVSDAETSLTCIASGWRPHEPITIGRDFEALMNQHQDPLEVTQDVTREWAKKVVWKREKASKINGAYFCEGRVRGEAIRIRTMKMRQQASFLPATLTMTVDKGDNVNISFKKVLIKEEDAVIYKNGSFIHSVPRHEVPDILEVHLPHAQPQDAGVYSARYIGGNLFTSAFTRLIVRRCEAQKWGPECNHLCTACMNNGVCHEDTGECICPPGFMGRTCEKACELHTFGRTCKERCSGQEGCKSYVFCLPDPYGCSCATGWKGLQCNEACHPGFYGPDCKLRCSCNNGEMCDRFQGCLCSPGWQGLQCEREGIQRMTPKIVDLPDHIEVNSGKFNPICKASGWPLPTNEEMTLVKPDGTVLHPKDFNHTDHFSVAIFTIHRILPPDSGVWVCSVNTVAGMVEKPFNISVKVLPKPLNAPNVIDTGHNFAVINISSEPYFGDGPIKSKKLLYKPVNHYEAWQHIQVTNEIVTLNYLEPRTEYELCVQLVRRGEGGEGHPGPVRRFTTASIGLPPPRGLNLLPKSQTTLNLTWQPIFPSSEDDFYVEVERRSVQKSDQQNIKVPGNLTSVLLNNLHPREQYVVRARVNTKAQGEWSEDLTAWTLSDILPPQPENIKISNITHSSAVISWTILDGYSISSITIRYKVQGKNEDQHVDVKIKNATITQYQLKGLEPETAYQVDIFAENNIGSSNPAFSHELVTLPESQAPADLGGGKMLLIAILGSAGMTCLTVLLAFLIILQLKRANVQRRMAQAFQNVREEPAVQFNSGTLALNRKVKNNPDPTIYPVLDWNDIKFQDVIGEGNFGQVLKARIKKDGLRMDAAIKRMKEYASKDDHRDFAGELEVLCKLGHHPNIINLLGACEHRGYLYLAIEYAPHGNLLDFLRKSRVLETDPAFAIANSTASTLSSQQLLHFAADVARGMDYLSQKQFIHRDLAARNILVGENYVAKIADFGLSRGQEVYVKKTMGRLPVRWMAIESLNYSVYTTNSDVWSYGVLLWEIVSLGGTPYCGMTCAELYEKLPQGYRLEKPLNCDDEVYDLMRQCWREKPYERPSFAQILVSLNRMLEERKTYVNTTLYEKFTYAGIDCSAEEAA

[4] = target: Vascular endothelial growth factor receptor 1 (Homo sapiens, UniProt P17948); test: Inhibition of FLT1 by HTRF assay
[5] = target: Vascular endothelial growth factor receptor 3 (Homo sapiens, UniProt P35916); test: Inhibition of FLT4 by HTRF assay
Vascular endothelial growth factor receptor 3, sequence (P35916 whole entry): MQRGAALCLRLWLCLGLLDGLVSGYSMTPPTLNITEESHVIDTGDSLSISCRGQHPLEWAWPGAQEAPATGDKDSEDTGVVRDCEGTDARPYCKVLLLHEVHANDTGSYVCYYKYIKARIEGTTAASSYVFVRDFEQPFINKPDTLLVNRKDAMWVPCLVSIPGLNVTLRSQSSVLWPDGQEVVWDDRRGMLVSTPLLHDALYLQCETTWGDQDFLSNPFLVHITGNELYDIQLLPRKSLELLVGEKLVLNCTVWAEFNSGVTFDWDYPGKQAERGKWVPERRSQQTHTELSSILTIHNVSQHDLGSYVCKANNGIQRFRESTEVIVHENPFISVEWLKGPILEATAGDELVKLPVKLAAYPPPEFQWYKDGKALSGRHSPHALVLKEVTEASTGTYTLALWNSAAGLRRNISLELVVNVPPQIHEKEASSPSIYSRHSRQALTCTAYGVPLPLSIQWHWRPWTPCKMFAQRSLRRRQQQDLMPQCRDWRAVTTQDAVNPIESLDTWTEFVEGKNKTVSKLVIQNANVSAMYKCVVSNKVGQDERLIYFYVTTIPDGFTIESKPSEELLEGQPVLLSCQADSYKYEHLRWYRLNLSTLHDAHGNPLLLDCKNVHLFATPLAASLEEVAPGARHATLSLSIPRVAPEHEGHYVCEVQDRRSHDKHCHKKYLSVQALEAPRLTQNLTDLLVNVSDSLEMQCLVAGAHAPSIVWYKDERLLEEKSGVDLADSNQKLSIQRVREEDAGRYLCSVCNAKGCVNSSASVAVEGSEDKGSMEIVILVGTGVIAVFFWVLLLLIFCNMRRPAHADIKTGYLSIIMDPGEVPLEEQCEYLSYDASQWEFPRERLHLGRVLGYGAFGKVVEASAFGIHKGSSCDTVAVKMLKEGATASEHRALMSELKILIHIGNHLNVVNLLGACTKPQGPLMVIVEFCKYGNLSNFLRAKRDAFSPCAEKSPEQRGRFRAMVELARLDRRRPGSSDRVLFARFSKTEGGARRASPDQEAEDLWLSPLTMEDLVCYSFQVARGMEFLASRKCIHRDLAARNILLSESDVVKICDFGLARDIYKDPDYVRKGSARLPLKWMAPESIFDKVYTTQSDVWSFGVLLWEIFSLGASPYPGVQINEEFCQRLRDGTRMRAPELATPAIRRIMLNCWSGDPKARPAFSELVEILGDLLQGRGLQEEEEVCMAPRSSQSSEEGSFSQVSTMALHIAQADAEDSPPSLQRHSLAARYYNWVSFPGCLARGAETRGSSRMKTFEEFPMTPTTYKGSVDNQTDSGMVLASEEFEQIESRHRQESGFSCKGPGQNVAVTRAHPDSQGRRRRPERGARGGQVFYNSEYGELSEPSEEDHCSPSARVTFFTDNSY

Mus musculus = test: Activity against estradiol-induced uterine edema in orally dosed murine; assay type: functional; conditions: po
[6] = target: Fibroblast growth factor receptor (Homo sapiens, UniProt P22607+P11362+P22455+P21802); test: Inhibition of FGFR by HTRF assay; assay type: protein assay
[7] = target: Mast/stem cell growth factor receptor Kit (Homo sapiens, UniProt P10721); test: Inhibition of cKit by HTRF assay
[8] = target: Tyrosine-protein kinase Lck (Homo sapiens, UniProt P06239); test: Inhibition of Lck by HTRF assay
Tyrosine-protein kinase Lck, sequence (P06239 whole entry): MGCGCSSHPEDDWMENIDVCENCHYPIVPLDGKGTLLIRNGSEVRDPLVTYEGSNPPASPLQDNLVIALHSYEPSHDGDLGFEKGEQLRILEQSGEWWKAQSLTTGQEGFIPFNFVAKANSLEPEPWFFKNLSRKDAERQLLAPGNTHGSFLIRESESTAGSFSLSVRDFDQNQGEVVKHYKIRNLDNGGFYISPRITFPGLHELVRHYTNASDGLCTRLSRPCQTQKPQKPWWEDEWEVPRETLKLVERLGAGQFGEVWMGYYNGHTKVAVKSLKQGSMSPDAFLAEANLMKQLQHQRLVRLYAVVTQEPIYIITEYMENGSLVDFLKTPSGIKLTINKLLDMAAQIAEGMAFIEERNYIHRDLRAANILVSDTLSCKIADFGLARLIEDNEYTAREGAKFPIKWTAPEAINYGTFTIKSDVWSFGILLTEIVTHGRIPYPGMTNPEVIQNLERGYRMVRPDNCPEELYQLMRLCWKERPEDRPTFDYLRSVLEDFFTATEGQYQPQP

[9] = target: Platelet-derived growth factor receptor (Homo sapiens, UniProt P09619+P16234); test: Inhibition of PDGFR by HTRF assay; assay type: protein-complex assay

T1 sequence (P35968 whole entry): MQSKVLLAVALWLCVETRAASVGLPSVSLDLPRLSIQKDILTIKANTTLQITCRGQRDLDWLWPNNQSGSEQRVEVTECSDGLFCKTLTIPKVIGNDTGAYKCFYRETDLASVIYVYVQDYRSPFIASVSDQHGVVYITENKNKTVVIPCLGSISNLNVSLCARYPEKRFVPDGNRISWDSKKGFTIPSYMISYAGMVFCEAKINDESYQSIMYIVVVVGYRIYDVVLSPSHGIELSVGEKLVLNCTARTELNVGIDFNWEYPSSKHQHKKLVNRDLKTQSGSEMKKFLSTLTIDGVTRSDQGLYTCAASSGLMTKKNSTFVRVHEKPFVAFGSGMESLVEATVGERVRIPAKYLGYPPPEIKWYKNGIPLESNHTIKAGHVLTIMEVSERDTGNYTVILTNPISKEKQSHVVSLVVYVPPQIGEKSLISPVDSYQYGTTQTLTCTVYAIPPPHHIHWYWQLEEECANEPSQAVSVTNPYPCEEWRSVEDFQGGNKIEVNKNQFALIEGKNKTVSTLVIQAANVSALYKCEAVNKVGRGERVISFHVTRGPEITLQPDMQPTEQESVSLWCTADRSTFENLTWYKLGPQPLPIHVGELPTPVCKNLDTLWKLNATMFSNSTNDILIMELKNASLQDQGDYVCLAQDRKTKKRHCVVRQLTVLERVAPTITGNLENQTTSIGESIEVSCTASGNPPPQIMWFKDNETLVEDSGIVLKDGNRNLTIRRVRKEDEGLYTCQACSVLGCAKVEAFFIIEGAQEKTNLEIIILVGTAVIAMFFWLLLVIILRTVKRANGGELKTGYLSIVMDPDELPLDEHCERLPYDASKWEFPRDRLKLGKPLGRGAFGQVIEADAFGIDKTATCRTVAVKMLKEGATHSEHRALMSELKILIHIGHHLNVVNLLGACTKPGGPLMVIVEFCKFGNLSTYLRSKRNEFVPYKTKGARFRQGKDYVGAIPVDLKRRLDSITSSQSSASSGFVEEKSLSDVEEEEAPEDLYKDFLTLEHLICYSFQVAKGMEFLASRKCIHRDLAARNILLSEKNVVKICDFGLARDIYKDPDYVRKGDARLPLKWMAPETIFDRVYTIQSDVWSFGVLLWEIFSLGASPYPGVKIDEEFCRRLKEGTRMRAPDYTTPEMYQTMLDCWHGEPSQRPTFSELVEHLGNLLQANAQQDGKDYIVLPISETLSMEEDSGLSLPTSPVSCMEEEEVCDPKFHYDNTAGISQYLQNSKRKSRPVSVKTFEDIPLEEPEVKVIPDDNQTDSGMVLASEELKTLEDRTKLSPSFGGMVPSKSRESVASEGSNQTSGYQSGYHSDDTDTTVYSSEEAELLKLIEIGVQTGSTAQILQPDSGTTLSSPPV

Compound: O=CN1CCN(Cc2ccc3c(c2)-c2n[nH]c(-c4ccsc4)c2C3)CC1
IC50 [1]: 0.665 µM

Compound: c1ncn(Cc2ccc3c(c2)-c2n[nH]c(-c4ccsc4)c2C3)n1
IC50 [1]: 0.108 µM

Compound: CN1CCN(Cc2ccc3c(c2)-c2[nH]nc(-c4ccsc4)c2C3)CC1
IC50 [2]: > 50 µM
IC50 (Angiopoietin-1 receptor): 47.8 µM
IC50 [4]: 0.97 µM
IC50 [1]: 0.18 µM
IC50 [5]: 1.57 µM
IC50 [6]: > 50 µM
IC50 [7]: 0.145 µM
IC50 [8]: > 50 µM
IC50 [9]: > 50 µM

Compound: CN1CCN(CCc2ccc3c(c2)-c2n[nH]c(-c4ccsc4)c2C3)CC1
IC50 [1]: 0.143 µM

Compound: c1cn(Cc2ccc3c(c2)-c2[nH]nc(-c4ccsc4)c2C3)nn1
IC50 [1]: 0.19 µM

Compound: CN1CCN(c2ccc3c(c2)Cc2c(-c4cccs4)n[nH]c2-3)CC1
IC50 [1]: 1000 µM

Continued, in another order:

IC50 [1]: 0.19 µM
Compound: CC(C)N1CCN(Cc2ccc3c(c2)-c2n[nH]c(-c4ccsc4)c2C3)CC1

IC50 [1]: > 50 µM
Compound: Cc1ccsc1-c1[nH]nc2c1Cc1cc(CN3CCN(C)CC3)ccc1-2

IC50 [1]: > 50 µM
Compound: CN1CCN(Cc2ccc3c(c2)Cc2c-3n[nH]c2-c2cc3ccccc3s2)CC1

IC50 [2]: > 50 µM
IC50 [3]: 0.293 µM
IC50 (Angiopoietin-1 receptor): 17.6 µM
IC50 [4]: 0.601 µM
IC50 [1]: 0.147 µM
IC50 [5]: 0.169 µM
IC50 [6]: 34.355 µM
IC50 [7]: 0.103 µM
IC50 [8]: 21.1 µM
Compound: c1cn(Cc2ccc3c(c2)-c2[nH]nc(-c4ccsc4)c2C3)cn1
ED50 (Mus musculus): 20 mg/kg

IC50 [1]: 0.824 µM
Compound: CCN(CC)Cc1ccc2c(c1)-c1n[nH]c(-c3ccsc3)c1C2

IC50 [1]: 4.08 µM
Compound: CN1CCN(C(=O)c2ccc3c(c2)-c2[nH]nc(-c4ccsc4)c2C3)CC1
